Source: PMC12203311, “Design, synthesis, in silico and in vitro evaluation of pyrrole–indole hybrids as dual tubulin and aromatase inhibitors with potent anticancer activities” (RSC Advances, 2025)

How the values were obtained:
Experiment in all cases: NCI60 five-dose screen
HL-60 (TB) = assay type: cell-based; settings: Homo sapiens, leukemia
K-562 = assay type: cell-based; settings: Homo sapiens, K562, K-562, leukemia
RPMI-8226 = assay type: cell-based; settings: Homo sapiens, RPMI-8226, leukemia
A549/ATCC = assay type: cell-based; settings: Homo sapiens, NSC lung cancer
EKVX = assay type: cell-based; settings: Homo sapiens, NSC lung cancer
HOP-62 = assay type: cell-based; settings: Homo sapiens, HOP-62, NSC lung cancer
NCI-H23 = assay type: cell-based; settings: Homo sapiens, NCI-H23, NSC lung cancer
NCI-H460 = assay type: cell-based; settings: Homo sapiens, NCI-H460, NSC lung cancer
NCI-H522 = assay type: cell-based; settings: Homo sapiens, NCI-H522, NSC lung cancer
COLO 205 = assay type: cell-based, human; settings: Homo sapiens
HCT-15 = assay type: cell-based; settings: Homo sapiens, HCT-15, colon cancer
SF-295 = assay type: cell-based; settings: Homo sapiens, SF-295, CNS cancer
SNB-19 = assay type: cell-based; settings: Homo sapiens, SNB-19, CNS cancer
SNB-75 = assay type: cell-based; settings: Homo sapiens, SNB-75, CNS cancer
U251 = assay type: cell-based; settings: Homo sapiens, U-251, U251, CNS cancer
LOX IMVI = assay type: cell-based; settings: Homo sapiens, melanoma
SK-MEL-2 = assay type: cell-based; settings: Homo sapiens, SK-MEL-2, melanoma
SK-MEL-28 = assay type: cell-based; settings: Homo sapiens, SK-MEL-28, melanoma
SK-MEL-5 = assay type: cell-based, human; settings: Homo sapiens
UACC-257 = assay type: cell-based; settings: Homo sapiens, UACC-257, melanoma
UACC-62 = assay type: cell-based; settings: Homo sapiens, UACC-62, melanoma
IGROV1 = assay type: cell-based; settings: Homo sapiens, IGROV-1; IGROV1, ovarian cancer
OVCAR-3 = assay type: cell-based; settings: Homo sapiens, OVCAR-3, ovarian cancer
OVCAR-4 = assay type: cell-based; settings: Homo sapiens, OVCAR-4, ovarian cancer
OVCAR-8 = assay type: cell-based; settings: Homo sapiens, OVCAR-8, ovarian cancer
NCI/ADR-RES = assay type: cell-based, human; settings: Homo sapiens, ovarian cancer
SK-OV-3 = assay type: cell-based; settings: Homo sapiens, SK-OV-3, ovarian cancer
ACHN = assay type: cell-based; settings: Homo sapiens, renal cancer
CAKI-1 = assay type: cell-based; settings: Homo sapiens, CAKI-1, renal cancer
SN12C = assay type: cell-based; settings: Homo sapiens, renal cancer
TK-10 = assay type: cell-based; settings: Homo sapiens, TK-10, renal cancer
PC-3 = assay type: cell-based; settings: Homo sapiens, PC-3, prostate cancer
DU-145 = assay type: cell-based; settings: Homo sapiens, DU-145, prostate cancer
MCF7 = assay type: cell-based; settings: Homo sapiens, MCF7, breast cancer
MDA-MB-231/ATCC = assay type: cell-based; settings: Homo sapiens, breast cancer
BT-549 = assay type: cell-based; settings: Homo sapiens, BT-549, breast cancer
[1] = read-out: LC50 (the source's name)

Q: How did the GI50 (HL-60 (TB)) turn out when `CCc1ccc(/C=N/NC(=O)c2[nH]c3ccc(Br)cc3c2-c2ccccc2)[nH]1` [Derivative 3s, (E)-5-Bromo-N′-((5-ethyl-1H-pyrrol-2-yl)methylene)-3-phenyl-1H-indole-2-carbohydrazide] was run?
A: The GI50 was 0.235 µM.

Q: And the CC50 (HL-60 (TB); [1])?
A: Its CC50 is greater than 100 µM.

Q: What about the GI50 (K-562) of the same compound?
A: The GI50 was 0.338 µM.

Q: And the CC50 (K-562; [1])?
A: The CC50 was greater than 100 µM.

Q: What about the GI50 (RPMI-8226) of the same compound?
A: Its GI50 is 0.375 µM.

Q: And the CC50 (RPMI-8226; [1])?
A: Its CC50 is greater than 100 µM.

Q: And the GI50 (A549/ATCC)?
A: The GI50 was 0.399 µM.

Q: And the CC50 (A549/ATCC; [1])?
A: Its CC50 is 70.3 µM.

Q: And the GI50 (EKVX)?
A: The GI50 was 0.453 µM.

Q: And the CC50 (EKVX; [1])?
A: The CC50 was 43 µM.

Q: What about the GI50 (HOP-62) of the same compound?
A: The GI50 was 0.861 µM.

Q: What about the CC50 (HOP-62; [1]) of the same compound?
A: Its CC50 is 46.2 µM.

Q: And the GI50 (NCI-H23)?
A: Its GI50 is 0.484 µM.

Q: What about the CC50 (NCI-H23; [1]) of the same compound?
A: The CC50 was 42.6 µM.

Q: What about the GI50 (NCI-H460) of the same compound?
A: The GI50 was 0.396 µM.

Q: And the CC50 (NCI-H460; [1])?
A: Its CC50 is 43.5 µM.

Q: And the GI50 (NCI-H522)?
A: Its GI50 is 0.183 µM.

Q: What about the CC50 (NCI-H522; [1]) of the same compound?
A: Its CC50 is 28 µM.

Q: And the CC50 (COLO 205; COLO 205, COLO 205, colon cancer, read-out: LC50 (the source's name))?
A: The CC50 was 26.1 µM.

Q: What about the GI50 (COLO 205; COLO 205, colon cancer) of the same compound?
A: Its GI50 is 0.316 µM.

Q: And the GI50 (HCT-15)?
A: Its GI50 is 0.349 µM.

Q: What about the CC50 (HCT-15; [1]) of the same compound?
A: Its CC50 is 37.4 µM.

Q: And the GI50 (SF-295)?
A: The GI50 was 0.246 µM.

Q: What about the CC50 (SF-295; [1]) of the same compound?
A: Its CC50 is 31.9 µM.

Q: What about the GI50 (SNB-19) of the same compound?
A: The GI50 was 1.82 µM.

Q: And the CC50 (SNB-19; [1])?
A: The CC50 was 51.8 µM.

Q: What about the GI50 (SNB-75) of the same compound?
A: Its GI50 is 0.285 µM.

Q: What about the CC50 (SNB-75; [1]) of the same compound?
A: The CC50 was 54.1 µM.

Q: What about the GI50 (U251) of the same compound?
A: Its GI50 is 0.329 µM.

Q: What about the CC50 (U251; [1]) of the same compound?
A: Its CC50 is 36.7 µM.

Q: And the GI50 (LOX IMVI)?
A: The GI50 was 0.722 µM.

Q: What about the CC50 (LOX IMVI; [1]) of the same compound?
A: The CC50 was 36.1 µM.

Q: What about the GI50 (SK-MEL-2) of the same compound?
A: The GI50 was 0.647 µM.

Q: What about the CC50 (SK-MEL-2; [1]) of the same compound?
A: Its CC50 is 45.9 µM.

Q: And the GI50 (SK-MEL-28)?
A: Its GI50 is 0.979 µM.

Q: And the CC50 (SK-MEL-28; [1])?
A: The CC50 was 49.8 µM.

Q: And the CC50 (SK-MEL-5; SK-MEL-5, SK-MEL-5, melanoma, read-out: LC50 (the source's name))?
A: Its CC50 is 10.1 µM.

Q: What about the GI50 (SK-MEL-5; SK-MEL-5, melanoma) of the same compound?
A: Its GI50 is 0.381 µM.

Q: And the GI50 (UACC-257)?
A: The GI50 was 1.32 µM.

Q: And the CC50 (UACC-257; [1])?
A: Its CC50 is 64.7 µM.

Q: And the GI50 (UACC-62)?
A: The GI50 was 0.381 µM.

Q: And the CC50 (UACC-62; [1])?
A: The CC50 was 38.1 µM.

Q: What about the GI50 (IGROV1) of the same compound?
A: The GI50 was 0.612 µM.

Q: What about the LC50 (concentration causing 50% net cell kill) (IGROV1) of the same compound?
A: Its LC50 (concentration causing 50% net cell kill) is 43.3 µM.

Q: What about the GI50 (OVCAR-3) of the same compound?
A: The GI50 was 0.356 µM.

Q: And the CC50 (OVCAR-3; [1])?
A: The CC50 was 36.1 µM.

Q: And the GI50 (OVCAR-4)?
A: Its GI50 is 2.41 µM.

Q: What about the CC50 (OVCAR-4; [1]) of the same compound?
A: Its CC50 is 53.7 µM.

Q: What about the GI50 (OVCAR-8) of the same compound?
A: The GI50 was 0.337 µM.

Q: And the CC50 (OVCAR-8; [1])?
A: The CC50 was 25.2 µM.

Q: What about the GI50 (NCI/ADR-RES) of the same compound?
A: The GI50 was 0.253 µM.

Q: And the CC50 (NCI/ADR-RES; [1])?
A: The CC50 was 30.2 µM.

Q: And the GI50 (SK-OV-3)?
A: Its GI50 is 0.514 µM.

Q: And the CC50 (SK-OV-3; [1])?
A: The CC50 was 50.1 µM.

Q: What about the GI50 (ACHN) of the same compound?
A: Its GI50 is 0.861 µM.

Q: What about the CC50 (ACHN; [1]) of the same compound?
A: Its CC50 is 36.6 µM.

Q: What about the GI50 (CAKI-1) of the same compound?
A: Its GI50 is 1.04 µM.

Q: What about the CC50 (CAKI-1; [1]) of the same compound?
A: Its CC50 is 56.2 µM.

Q: And the GI50 (SN12C)?
A: The GI50 was 0.392 µM.

Q: And the CC50 (SN12C; [1])?
A: The CC50 was 30.3 µM.

Q: What about the GI50 (TK-10) of the same compound?
A: The GI50 was 2.91 µM.

Q: What about the CC50 (TK-10; [1]) of the same compound?
A: The CC50 was 46.3 µM.

Q: And the GI50 (PC-3)?
A: The GI50 was 0.532 µM.

Q: And the CC50 (PC-3; [1])?
A: The CC50 was greater than 100 µM.

Q: And the GI50 (DU-145)?
A: The GI50 was 0.418 µM.

Q: What about the CC50 (DU-145; [1]) of the same compound?
A: The CC50 was 36.7 µM.

Q: And the GI50 (MCF7)?
A: Its GI50 is 0.369 µM.

Q: And the CC50 (MCF7; [1])?
A: The CC50 was 45.9 µM.

Q: What about the GI50 (MDA-MB-231/ATCC) of the same compound?
A: The GI50 was 0.63 µM.

Q: And the CC50 (MDA-MB-231/ATCC; [1])?
A: Its CC50 is 48.4 µM.

Q: And the GI50 (BT-549)?
A: Its GI50 is 0.979 µM.

Q: What about the CC50 (BT-549; [1]) of the same compound?
A: Its CC50 is 30.3 µM.
